According to patent publication US7799821B2, “Therapeutic compounds” (Allergan, Inc., priority 2004, dated 2010):
Like-named read-outs stand apart in the source and are kept apart here.

Key:
hTP = target: T1, hTP (Homo sapiens, UniProt P21731); experiment: FLIPR calcium signal, hTP; type: cell-based
T1 construct: expressed in transfected cells; host or cells: HEK-293(EBNA)
T1 sequence (P21731 1-343): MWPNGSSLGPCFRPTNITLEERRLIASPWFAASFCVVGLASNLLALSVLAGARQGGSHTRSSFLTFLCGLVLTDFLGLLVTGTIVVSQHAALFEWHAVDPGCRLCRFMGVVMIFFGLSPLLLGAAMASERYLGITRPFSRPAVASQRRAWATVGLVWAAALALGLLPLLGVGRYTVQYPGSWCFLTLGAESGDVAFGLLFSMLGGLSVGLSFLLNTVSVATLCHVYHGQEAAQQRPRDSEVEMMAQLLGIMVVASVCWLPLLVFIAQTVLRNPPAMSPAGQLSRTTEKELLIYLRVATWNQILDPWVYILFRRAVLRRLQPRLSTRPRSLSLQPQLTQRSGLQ
Method: (§1) HEK-293(EBNA) cells, stably expressing one type or subtype of recombinant human prostaglandin receptors (prostaglandin receptors expressed: hDP/Gqs5; hEP1; hEP2/Gqs5; hEP3A/Gqi5; hEP4/Gqs5; hFP; hIP; hTP), were cultured in 100 mm culture dishes in high-glucose DMEM medium containing 10% fetal bovine serum, 2 mM 1-glutamine, 250 μg/ml geneticin (G418) and 200 μg/ml hygromycin B as selection markers, and 100 units/ml penicillin G, 100 μg/ml streptomycin and 0.25 μg/ml amphotericin B. • (b) Calcium Signal Studies on the FLIPR™
(§2) Cells were seeded at a density of 5×10^4 cells per well in Biocoat® Poly-D-lysine-coated black-wall, clear-bottom 96-well plates (Becton-Dickinson) and allowed to attach overnight in an incubator at 37° C. Cells were then washed two times with HBSS-HEPES buffer (Hanks Balanced Salt Solution without bicarbonate and phenol red, 20 mM HEPES, pH 7.4) using a Denley Cellwash plate washer (Labsystems). After 45 minutes of dye-loading in the dark, using the calcium-sensitive dye Fluo-4 AM at a final concentration of 2 μM, plates were washed four times with HBSS-HEPES buffer to remove excess dye leaving 100 μl in each well. Plates were re-equilibrated to 37° C. for a few minutes.
(§3) Cells were excited with an Argon laser at 488 nm, and emission was measured through a 510-570 nm bandwidth emission filter (FLIPR™, Molecular Devices, Sunnyvale, Calif.). Drug solution was added in a 50 μl volume to each well to give the desired final concentration. The peak increase in fluorescence intensity was recorded for each well. On each plate, four wells each served as negative (HBSS-HEPES buffer) and positive controls (standard agonists: BW245C (hDP); PGE2 (hEP1; hEP2/Gqs5; hEP3A/Gqi5; hEP4/Gqs5); PGF2α (hFP); carbacyclin (hIP); U-46619 (hTP), depending on receptor). The peak fluorescence change in each drug-containing well was then expressed relative to the controls.
(§4) Compounds were tested in a high-throughput (HTS) or concentration-response (CoRe) format. In the HTS format, forty-four compounds per plate were examined in duplicates at a concentration of 10^−5 M. To generate concentration-response curves, four compounds per plate were tested in duplicates in a concentration range between 10^−5 and 10^−11 M. The duplicate values were averaged. In either, HTS or CoRe format each compound was tested on at least 3 separate plates using cells from different passages to give an n≧3.

hDP/Gqs5 = target: T2, hDP/Gqs5 (Homo sapiens, UniProt Q13258); experiment: FLIPR calcium signal, hDP; type: cell-based
T2 construct: expressed in transfected cells; host or cells: HEK-293(EBNA)
T2 sequence (Q13258 1-359): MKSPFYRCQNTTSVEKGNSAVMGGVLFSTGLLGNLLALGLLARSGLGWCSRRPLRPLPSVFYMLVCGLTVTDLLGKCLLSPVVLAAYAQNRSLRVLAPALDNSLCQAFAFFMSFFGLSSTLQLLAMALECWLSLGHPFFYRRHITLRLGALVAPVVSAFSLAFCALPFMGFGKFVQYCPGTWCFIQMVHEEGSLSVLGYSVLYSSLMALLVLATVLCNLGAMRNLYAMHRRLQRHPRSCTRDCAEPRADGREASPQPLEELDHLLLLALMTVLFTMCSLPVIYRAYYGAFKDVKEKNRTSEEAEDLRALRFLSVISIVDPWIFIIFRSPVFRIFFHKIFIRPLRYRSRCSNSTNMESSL
Method: as §1, §2, §3, §4

hEP2/Gqs5 = target: T3, hEP2/Gqs5 (Homo sapiens, UniProt P43116); experiment: FLIPR calcium signal, hEP2; type: cell-based
T3 construct: expressed in transfected cells; host or cells: HEK-293(EBNA)
Outline: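 HEK-293(EBNA) cells stably expressing the recombinant human receptor were loaded with 2 μM Fluo-4 AM for 45 min and read on FLIPR at 37° C in HBSS-HEPES pH 7.4. Peak fluorescence rise was expressed relative to buffer and standard agonist controls (BW245C, PGE2 or U-46619 by receptor); compounds were run 10^−5 to 10^−11 M in duplicate, n≧3.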

EP4 receptors = target: T4, EP4 receptors (Homo sapiens, UniProt P35408); experiment: Radioligand binding ([3H]PGE2), EP4; details: unit inferred; read-out: EP4 data KI
T4 construct: expressed in transfected cells; host or cells: HEK-293
Method: (§5) HEK-293 cells stably expressing the human or feline FP receptor, or EP1, EP2, or EP4 receptors were washed with TME buffer, scraped from the bottom of the flasks, and homogenized for 30 sec using a Brinkman PT 10/35 polytron. TME buffer was added to achieve a final 40 ml volume in the centrifuge tubes (the composition of TME is 100 mM TRIS base, 20 mM MgCl2, […]; 10N HCl is added to achieve a pH of 7.4).
(§6) The cell homogenate was centrifuged at 19000 r.p.m. for 20 min at 4° C. using a Beckman Ti-60 rotor. The resultant pellet was resuspended in TME buffer to give a final 1 mg/ml protein concentration, as determined by Biorad assay. Radioligand binding competition assays vs. [^3H-]17 —phenyl PGF2α (5 nM) were performed in a 100 μl volume for 60 min. Binding reactions were started by adding plasma membrane fraction. The reaction was terminated by the addition of 4 ml ice-cold TRIS-HCl buffer and rapid filtration through glass fiber GF/B filters using a Brandel cell harvester. The filters were washed 3 times with ice-cold buffer and oven dried for one hour.
(§7) [^3H-] PGE2 (specific activity 180 Ci mmol) was used as the radioligand for EP receptors. [^3H] 17-phenyl PGF2α was employed for FP receptor binding studies. Binding studies employing EP1, EP2, EP4 and FP receptors were performed in duplicate in at least three separate experiments. A 200 μl assay volume was used. Incubations were for 60 min at 25° C. and were terminated by the addition of 4 ml of ice-cold 50 mM TRIS-HCl, followed by rapid filtration through Whatman GF/B filters and three additional 4 ml washes in a cell harvester (Brandel). Competition studies were performed using a final concentration of 5 nM [^3H]—PGE2, or 5 nM [^3H] 17-phenyl PGF2α and non-specific binding determined with 10^−5M of unlabeled PGE2, or 17-phenyl PGF2α, according to receptor subtype studied.

hEP4/Gqs5 = target: T5, hEP4/Gqs5 (Homo sapiens, UniProt P35408); experiment: FLIPR calcium signal, hEP4; type: cell-based; details: unit inferred; read-out: EP4 data flipr EC50
T5 construct: expressed in transfected cells; host or cells: HEK-293(EBNA)
Method: as §1, §2, §3, §4

[1] = target: T6, HEK-EBNA cells expressing a PG EP2 receptor subtype (Homo sapiens, UniProt P43116); experiment: cAMP assay, EP2; type: cell-based; details: unit inferred; read-out: EP2 data cAMP EC50
T6 construct: expressed in transfected cells; host or cells: HEK-EBNA
Method: A 384-well drug plate was prepared to contain 6 test compounds, PGE2 and cAMP in 16 serial dilutions in triplicate, using a Biomek station. HEK-EBNA cells expressing a target PG receptor subtype (EP2 or EP4) were suspended in a stimulation buffer (HBSS, 0.1% BSA, 0.5 mM IBMX and 5 mM HEPES, pH 7.4) in a density of 10^4 cells/5 μl. The reaction was initiated by mixing 5 μL drug dilutions with 5 μl of HEK-EBNA cells in a well, carried out for 30 min at room temperature, and followed by the addition of 5 μl anti-cAMP acceptor beads in the control buffer with Tween-20 (25 mM NaCl, 0.03% Tween-20, 5 mM HEPES, pH7.4). After 30 min in the dark at room temperature, the mixtures were incubated with 15 μl biotinylated-cAMP/strepavidin donor beads in Lysis/Detection buffer (0.1% BSA, 0.3% Tween-20 and 5 mM HEPES, pH7.4) for 45 min at the room temperature. Fluorescence changes were read using a Fusion-alpha HT microplate reader.

human EP2 receptors = target: T7, human EP2 receptors (Homo sapiens, UniProt P43116); experiment: Competition radioligand binding ([3H]PGE2), EP2; details: unit inferred; read-out: EP2 data Ki
T7 construct: expressed in transfected cells; host or cells: HEK 293
Method: Competition binding experiments were performed in a medium containing Hank's balanced salt solution, […], membranes (˜60 μg protein) or 2×10^5 cells from HEK 293 cells stably expressing human EP2 receptors, [^3H]PGE2 (10 nM) and various concentrations of test compounds in a total volume of 300 μl. Reaction mixtures were incubated at 23° C. for 60 min, and were filtered over Whatman GF/B filters under vacuum. Filters were washed three times with 5 ml ice-cold buffer containing 50 mM Tris/HCl (pH 7.3). Non-specific binding was estimated in the presence of excess unlabeled PGE2 (10 μM). Binding data fitted to the binding model for a single class of binding sites, using nonlinear regression analysis. IC50 values thus obtained were converted to Ki using the equation of Ki=(IC50/(1+[L]/KD) where [L] represents PGE2 concentration (10 nM) and KD the dissociation constant for [^3H]PGE2 at human EP2 receptors (40 nM).
as §5, §6, §7

hEP3A/Gqi5 = target: T8, hEP3A/Gqi5 (Homo sapiens, UniProt P43115); experiment: FLIPR calcium signal, hEP3A; type: cell-based; details: read-out: Other Receptors EC50 hEP3A
T8 construct: expressed in transfected cells; host or cells: HEK-293(EBNA)
T8 sequence (P43115 1-390): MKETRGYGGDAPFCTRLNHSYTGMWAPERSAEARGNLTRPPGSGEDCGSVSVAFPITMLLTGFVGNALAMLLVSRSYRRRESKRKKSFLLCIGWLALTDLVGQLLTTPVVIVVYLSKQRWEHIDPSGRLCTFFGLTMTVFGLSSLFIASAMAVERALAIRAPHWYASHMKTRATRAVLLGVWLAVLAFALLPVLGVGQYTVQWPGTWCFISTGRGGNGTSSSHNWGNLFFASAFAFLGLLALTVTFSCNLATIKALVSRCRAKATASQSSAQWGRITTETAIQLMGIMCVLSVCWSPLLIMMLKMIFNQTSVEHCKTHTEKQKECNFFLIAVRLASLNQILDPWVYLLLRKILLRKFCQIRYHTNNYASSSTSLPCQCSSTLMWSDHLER
Method: as §1, §2, §3, §4

[2] = FLIPR Ca2+ signal, HEK-293(EBNA), read-out: FUNCTIONAL EC50 HTP
[3] = FLIPR Ca2+ signal, HEK-293(EBNA), read-out: FUNCTIONAL EC50 HEP2
[4] = read-out: Other Receptors EC50 hDP
[5] = unit inferred, other columns of the table in nM, read-out: EP2 data flipr EC50

T4 sequence (P35408 whole entry): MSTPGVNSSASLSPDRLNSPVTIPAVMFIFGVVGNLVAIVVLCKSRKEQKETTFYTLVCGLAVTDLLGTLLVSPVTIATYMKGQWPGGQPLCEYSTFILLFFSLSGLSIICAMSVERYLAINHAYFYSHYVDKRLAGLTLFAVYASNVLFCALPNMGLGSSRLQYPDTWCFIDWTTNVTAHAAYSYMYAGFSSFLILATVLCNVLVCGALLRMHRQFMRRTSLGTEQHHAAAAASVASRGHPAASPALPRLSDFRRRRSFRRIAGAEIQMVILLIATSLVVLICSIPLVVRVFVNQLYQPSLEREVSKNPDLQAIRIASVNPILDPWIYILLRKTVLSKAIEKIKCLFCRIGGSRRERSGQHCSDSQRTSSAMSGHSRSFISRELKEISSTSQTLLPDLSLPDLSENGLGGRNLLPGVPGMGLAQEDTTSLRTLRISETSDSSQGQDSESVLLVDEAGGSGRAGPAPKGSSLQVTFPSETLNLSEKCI
T5 sequence (P35408 whole entry): as above
T7 sequence (P43116 whole entry): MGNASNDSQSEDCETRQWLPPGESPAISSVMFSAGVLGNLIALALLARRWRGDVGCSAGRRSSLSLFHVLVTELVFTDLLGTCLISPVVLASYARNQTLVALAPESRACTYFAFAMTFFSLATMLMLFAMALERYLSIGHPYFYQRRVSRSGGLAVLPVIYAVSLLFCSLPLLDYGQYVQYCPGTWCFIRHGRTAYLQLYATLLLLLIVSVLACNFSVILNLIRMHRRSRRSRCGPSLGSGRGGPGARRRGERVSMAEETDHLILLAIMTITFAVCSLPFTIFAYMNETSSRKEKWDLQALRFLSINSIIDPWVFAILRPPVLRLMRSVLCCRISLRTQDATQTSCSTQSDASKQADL
T6 sequence (P43116 whole entry): as above
T3 sequence (P43116 whole entry): as above

Compound | EC50 (hTP; [2]) | EC50 (hDP/Gqs5; [4]) | EC50 (hEP2/Gqs5; [5]) | Ki (EP4 receptors) | EC50 (hEP4/Gqs5) | Ki (human EP2 receptors) | further results
CCCC1(C(O)c2ccc([C@H]3[C@H](O)CC(=O)[C@@H]3C/C=C\CCCC(=O)OC)cc2)CCC1 (some centres unmarked) | > 10 µM | – | – | – | – | – | –
O=C(O)CCCCCC[C@@H]1[C@@H](c2ccc(CC3CCCCC3)cc2)[C@H](O)C[C@H]1Cl | – | – | – | – | – | – | EC50 (hDP/Gqs5; FLIPR Ca2+ signal, HEK-293(EBNA), read-out: FUNCTIONAL EC50 HDP): > 10 µM; EC50 (hEP2/Gqs5; [3]): 3440 nM
O=C(O)CCCCCC[C@H]1C(=O)C[C@@H](O)[C@@H]1c1ccc2c(c1)CCC2O (some centres unmarked) | > 10 µM | – | – | – | – | – | –
O=C(O)CCC/C=C\C[C@@H]1[C@@H](c2ccc(C3(O)CCC3)cc2)[C@H](O)C[C@H]1Cl | > 10 µM | – | – | – | – | – | EC50 (hEP2/Gqs5; [3]): 513 nM
COC(=O)CCCCCC[C@@H]1[C@@H](c2ccc(C3(O)CCC3)cc2)[C@H](O)C[C@H]1Cl | > 10 µM | – | – | – | – | – | EC50 (hEP2/Gqs5; [3]): > 10000 nM
CCC(O)c1ccc(N2C(=O)CC[C@@H]2COCc2ccc(C(=O)O)s2)cc1 (some centres unmarked) | – | 7.56 µM | 1810 nM | > 10 µM | > 10 µM | 5.73 µM | EC50 [1]: 0.312 µM
CCCCCC(O)c1ccc(N2C(=O)CC[C@@H]2COCc2ccc(C(=O)O)s2)cc1 (some centres unmarked) | – | 3.23 µM | 8 nM | > 10 µM | > 10 µM | 0.115 µM | –
CCCC1([C@@H](O)c2cccc([C@H]3CCC(=O)[C@@H]3C/C=C\CCCC(=O)OC)c2)CCC1 | – | – | – | – | – | – | EC50 (hTP; read-out: FUNCTIONAL Ca2+ EC50 HTP): > 10 µM
CCCCCCC(O)c1ccc(N2C(=O)CC[C@@H]2COCc2ccc(C(=O)O)s2)cc1 (some centres unmarked) [drawing 141] | – | 5.76 µM | 20 nM | > 10 µM | – | 0.19 µM | EC50 [1]: 0.0015 µM
CCCCCCC(O)c1ccc(N2C(=O)CC[C@@H]2CCCc2ccc(C(=O)O)s2)cc1 (some centres unmarked) [drawing 154] | – | 0.105 µM | 30 nM | – | > 10 µM | – | EC50 (hEP3A/Gqi5): 0.047 µM
CCCCCCC(O)c1ccc(N2C(=O)CC[C@@H]2COCc2ccc(C(=O)O)s2)cc1 (some centres unmarked) [drawing 169] | – | 5.76 µM | 20 nM | > 10 µM | – | 0.19 µM | EC50 [1]: 0.0015 µM
CCCCCCC(O)c1ccc(N2C(=O)CC[C@@H]2CCCc2ccc(C(=O)O)s2)cc1 (some centres unmarked) [drawing 182] | – | 0.105 µM | 30 nM | – | > 10 µM | – | EC50 (hEP3A/Gqi5): 0.047 µM
